The subject of series [1] is A. baumannii ATCC 17978. The class given is cell-based. The following applies: peptide added at 125 μg/mL; microdilution, two independent experiments. As to the method:
The minimal inhibitory concentration (MIC) of colistin in absence and presence of RW01 or RW06 at […] for A. baumannii ATCC 17978 strain was determined by microdilution assay in two independent experiments as previously reported ([Parra-Millán et al., 2018]).

Series [2] concerns P. aeruginosa PAO1. The series is described as follows: Bacterial cytotoxicity: viability of infected A549 cells (MTT). The settings on record: 24 h infection. It counts as cell-based. As to the method:
(§1) A549 cells were incubated with the peptide derivatives RW01, RW02, RW03, RW06, RW07, RW08, RW09, RW10, RW11, and RW13 (0, 3.5, 7, 15, 35, 62, 125, 250, and 500 μg/mL) for 24 h with 5% CO2 at 37°C. Prior the evaluation of the peptides cytotoxicity, A549 cells were washed three times with prewarmed PBS 1X. Subsequently, quantitative cytotoxicity was evaluated by measuring the mitochondrial reduction activity using the 3-(4,5-dimethylthiazol-2-yl)-2,5-diphenyltetrazolium bromide (MTT) assay as described previously ([Smani et al., 2013]). The percentage of […] was calculated from the absorbance at 570 nm as follow: [(Absorbance 570 nm of treated cells/Absorbance 570 nm mean of untreated cells) × 100].
(§2) A549 cells were infected with 10^8 CFU/mL, corresponding to a MOI of 500, of A. baumannii ATCC 17978, P. aeruginosa PAO1 and E. coli ATCC 25922 strains pretreated with AOA-2 or AOA-2 derivatives RW01, RW02, RW03, and RW06 (31.25, 62.5, and 125 μg/mL, 30 min) for 24 h with 5% CO2 at 37°C. Prior to the evaluation of bacterial cytotoxicity, viable bacteria are first removed from A549 cell culture by washing these A549 cells five times with PBS 1X. Subsequently, cell viability was evaluated as described above.

The test system of series [3] is E. coli ATCC 25922. Described as above. The class given is cell-based. The settings on record: for cell viability of infected A549 cells with respect to untreated strain: ATCC 25922 pretreated with peptide 125, 62.5 and 31.25 μg/mL, 24 h infection. As for the experimental part: as §1, §2
In series [4] the test system is A. baumannii ATCC 17978. The series is described as above. The class given is cell-based. The following applies: for cell viability of infected A549 cells with respect to untreated strain: 24 h infection. As for the experimental part: as §1, §2
For series [5], the system named is P. aeruginosa PAO1. Kind of series: Bacterial adhesion assay to A549 cells. It counts as cell-based. The settings on record: for adherence of P. aeruginosa to A549 cells reduced to: bacteria pre-incubated with peptide 250 μg/mL 30 min, MOI 500, 2 h, CFU count; for adherence of PAO1 strain to A549 cells compared with AOA-2: peptide 125, 62.5 and 31.25 μg/mL, some statistical differences, Figure 2B; for adherence of PAO1 strain to A549 cells (in words): peptide 250 μg/mL, 30 min, Figure 2A. As for the experimental part:
(§3) The human pneumocyte cell line type II A549, derived from a human lung carcinoma, obtained from the American Type Culture Collection was used and cultured in DMEM medium (Invitrogen, Spain) supplemented with 10% of heat-inactivated fetal bovine serum, 50 μg/mL vancomycin (Laboratorios Normon, Spain), 20 μg/mL gentamicin (Normon Laboratories, Spain), 0.25 μg/mL amphotericin B mL (Invitrogen, Spain) and 1% HEPES (Invitrogen, Spain) in a humidified incubator, 5% CO2 at 37°C. Routine passage of A549 cells was performed every 3–4 days. Cells were seeded 24 h in 96-well plates (Sarstedt, Germany) for the cell viability assay, and in 24-well plates (Sarstedt, Germany) for the bacterial adhesion assays.
(§4) A. baumannii ATCC 17978, P. aeruginosa PAO1 and E. coli ATCC 25922 strains were incubated with AOA-2 (31.25, 62.5, 125, and 250 μg/mL, 30 min), AOA-2 derivatives RW01, RW02, RW03, RW06, RW07, RW08, RW09, RW10, RW11, and RW13 (250 μg/mL, 30 min), or AOA-2 derivatives RW01, RW02, RW03, RW06 (31.25, 62.5, and 125 μg/mL, 30 min), and added at 10^8 CFU/mL, corresponding to a multiplicity of infection (MOI) of 500, to the A549 cells for 2 h at 5% CO2 and 37°C. Subsequently, infected A549 cells were washed five times with prewarmed PBS 1X and lysed with 0.5% Triton X-100. Serial dilutions of these lysates were made and plated on blood agar plates (Blood-Agar Columbia, Becton Dickinson Microbiology Systems, United States) and incubated at 37°C for 24 h for colony counting and then determination of CFU/mL that attached to A549 cells.

In series [6] the test system is E. coli ATCC 25922. Kind of series: Bacterial adhesion assay to A549 cells. The class given is cell-based. The settings on record: for adherence of E. coli to A549 cells reduced to: bacteria pre-incubated with peptide 250 μg/mL 30 min, MOI 500, 2 h, CFU count; for adherence of ATCC 25922 to host cells compared with AOA-2: peptide 125, 62.5 and 31.25 μg/mL, Figure 2B. As for the experimental part: as §3, §4

Series [7] concerns A. baumannii ATCC 17978. The series is described as follows: Bacterial adhesion assay to A549 cells. The class given is cell-based. The settings on record: for adherence of A. baumannii to A549 cells reduced to: bacteria pre-incubated with peptide 250 μg/mL 30 min, MOI 500, 2 h, CFU count; for adherence of ATCC 17978 to A549 cells compared with AOA-2: peptide 125, 62.5 and 31.25 μg/mL, except RW06 at 31.25 μg/mL, Figure 2B. As for the experimental part: as §3, §4

For series [8], the system named is OmpA-deficient mutant A. baumannii, JPAB01. It counts as cell-based. The settings on record: peptide added at 125 μg/mL, did not change the activity.
In series [9] the test system is A. baumannii, P. aeruginosa, and E. coli. The settings on record: in vivo administration, ref Vila-Farrés et al., 2017, cited from earlier work. The source says: This study focuses on the paradigm of interference in pathogenesis, that is, disarming pathogenic bacteria by neutralizing their virulence factors ([Dickey et al., 2017]).
A further series relates to A. baumannii. Set-up: method as in Parra-Millán et al., 2018. The following applies: ref Parra-Millán et al., 2018; cited from earlier work. From the text: Therefore, we thought it would be interesting to examine the capacity of RW01 and RW06 to potentiate the activity of colistin against A. baumannii ATCC 17978 strain.
For a further series, the system named is A549 cells. Set-up: method as in Vila-Farrés et al., 2017. The settings on record: cited from earlier work.
Series [10] relates to colistin-resistant A. baumannii. The settings on record: ref Parra-Millán et al., 2018; cited from earlier work. The source says:
The therapeutic efficacy of these […] should also be further evaluated in combination with antimicrobial agents used in the clinical setting.

Setting [11] is: ATCC 17978 pretreated with peptide 125 μg/mL only.

In the case of “&Trp-(NH2) D-Pro-Arg-Trp-D-Pro-Arg& (head to tail) [RW01, AOA-2 derivative, solubility enhanced by the addition of NH2 group]”, the “MIC of colistin in presence of peptide” value with A. baumannii ATCC 17978 [1] amounted to 0.015 mg/L. For the same substance, the “cell viability of infected A549 cells with respect to untreated strain” value (shortened to “cell viability of infected A549 cells”) with P. aeruginosa PAO1 [2] (PAO1 pretreated with peptide 125 and 62.5 μg/mL (31.25 μg/mL excepted)) was “increased significantly”. The “cell viability of infected A549 cells” value with E. coli ATCC 25922 [3] is “increased significantly”. The “protection from cell death caused by ATCC 25922 compared with AOA-2” value in the series with E. coli ATCC 25922 [3] (peptide 62.5 and 31.25 μg/mL) was “more protective”. Further, the “cell viability of infected A549 cells” value in the series on A. baumannii ATCC 17978 [4] (setting [11]) is “increased significantly”. For the same substance, in the series on P. aeruginosa PAO1 [5], the “adherence of P. aeruginosa to A549 cells reduced to” value stood at 40.08% and the “adherence of PAO1 strain to A549 cells compared with AOA-2” value is listed as “reduced better”. In the series on E. coli ATCC 25922 [6], the “adherence of E. coli to A549 cells reduced to” value was found to be 66.66% and the “adherence of ATCC 25922 to host cells compared with AOA-2” value was “reduced with some statistical differences”. In addition, in the series with A. baumannii ATCC 17978 [7], the “adherence of A. baumannii to A549 cells reduced to” value is reported as 26.18% and the “adherence of ATCC 17978 to A549 cells compared with AOA-2” value is on record as “reduced non-statistically”. Further, the “MIC of colistin in presence of peptide” value in series [8] turned out to be 0.0625 mg/L.
For “&Trp-D-Pro-Arg-Trp-D-Pro-Arg& (head to tail) [AOA-2]”, in series [9] (especially in A. baumannii), the mice mortality result was “significant decrease”. In [9], the “bacterial load in tissues” value is “large decrease”. Besides, the synergy with colistin entry in the series on A. baumannii is on record as “synergize with colistin”. For the same substance, the “toxicity in human lung epithelial cells” value with A549 cells is on record as “did not show toxicity”. In addition, the “therapeutic efficacy when combined with colistin” value in series [10] was “good therapeutic efficacy”. For the same substance, the “cell viability of infected A549 cells” value was “did not increase significantly” with P. aeruginosa PAO1 [2] (PAO1 pretreated with peptide 125, 62.5 and 31.25 μg/mL); “did not increase significantly” in the series on E. coli ATCC 25922 [3]; “did not increase significantly” in the series on A. baumannii ATCC 17978 [4] (ATCC 17978 pretreated with peptide 125, 62.5 and 31.25 μg/mL, 30 min). Further, in the series with P. aeruginosa PAO1 [5], the “adherence of P. aeruginosa to A549 cells reduced to” value was determined as 84.47%. Moreover, in the series on E. coli ATCC 25922 [6], the “adherence of E. coli to A549 cells reduced to” value is 65.05%. Moreover, the “adherence of A. baumannii to A549 cells reduced to” value with A. baumannii ATCC 17978 [7] is recorded as 36.62%.
With “&Trp-D-Pro-Dab-Trp-D-Pro-Dab& (head to tail) [RW06, AOA-2 derivative with arginine analog Dab]”, the “MIC of colistin in presence of peptide” value with A. baumannii ATCC 17978 [1] is 0.015 mg/L. For the same substance, the “cell viability of infected A549 cells” value in the series on P. aeruginosa PAO1 [2] (PAO1 pretreated with peptide 62.5 and 31.25 μg/mL (125 μg/mL excepted)) is on record as “did not increase significantly”. Also, the “cell viability of infected A549 cells” value in the series on E. coli ATCC 25922 [3] was “did not increase significantly”. Also, the “cell viability of infected A549 cells” value with A. baumannii ATCC 17978 [4] (setting [11]) is “increased significantly”. Besides, the “protection from cell death caused by ATCC 17978 compared with AOA-2” value in the series with A. baumannii ATCC 17978 [4] (peptide 62.5 μg/mL) is given as “protected more significantly”. For the same substance, in the series on P. aeruginosa PAO1 [5], the “adherence of P. aeruginosa to A549 cells reduced to” value is reported as 31.14% and the “adherence of PAO1 strain to A549 cells compared with AOA-2” value is on record as “reduced better”. Further, in the series with E. coli ATCC 25922 [6], the “adherence of E. coli to A549 cells reduced to” value is reported as 44.44% and the “adherence of ATCC 25922 to host cells compared with AOA-2” value was “reduced with some statistical differences”. In the series with A. baumannii ATCC 17978 [7], the “adherence of A. baumannii to A549 cells reduced to” value was found to be 32.83% and the “adherence of ATCC 17978 to A549 cells compared with AOA-2” value is reported as “reduced non-statistically”. The “MIC of colistin in presence of peptide” value in series [8] was determined as 0.0625 mg/L.
Turning to “&Trp-D-Pro-Lys-Trp-D-Pro-Lys& (head to tail) [RW07, AOA-2 derivative with arginine analog lysine]”, the “adherence of PAO1 strain to A549 cells (in words)” value in the series on P. aeruginosa PAO1 [5] was “reduced”. Also, in the series with E. coli ATCC 25922 [6] (peptide 250 μg/mL, 30 min, Figure 2A), the “adherence of ATCC 25922 strain to A549 cells (in words)” value is given as “reduced”.
In the case of “&Trp-D-Pro-Trp-Arg-D-Pro-Arg& (head to tail) [RW09]”, in the series on P. aeruginosa PAO1 [5], the “adherence of PAO1 strain to A549 cells (in words)” value is “reduced”.
Same read-out and setting: as for “&Tyr-D-Pro-Ala-Tyr-D-Pro-Ala& (head to tail) [RW10]”, the entry is “reduced”.
